In patent US20050197338A1, “Substituted pyrazole urea compounds for the treatment of inflammation” (priority 2003, published 2005):

Biological target: T1, Rat IKK-2 (Rattus norvegicus, UniProt Q9QY78)
T1 sequence (Q9QY78 1-757): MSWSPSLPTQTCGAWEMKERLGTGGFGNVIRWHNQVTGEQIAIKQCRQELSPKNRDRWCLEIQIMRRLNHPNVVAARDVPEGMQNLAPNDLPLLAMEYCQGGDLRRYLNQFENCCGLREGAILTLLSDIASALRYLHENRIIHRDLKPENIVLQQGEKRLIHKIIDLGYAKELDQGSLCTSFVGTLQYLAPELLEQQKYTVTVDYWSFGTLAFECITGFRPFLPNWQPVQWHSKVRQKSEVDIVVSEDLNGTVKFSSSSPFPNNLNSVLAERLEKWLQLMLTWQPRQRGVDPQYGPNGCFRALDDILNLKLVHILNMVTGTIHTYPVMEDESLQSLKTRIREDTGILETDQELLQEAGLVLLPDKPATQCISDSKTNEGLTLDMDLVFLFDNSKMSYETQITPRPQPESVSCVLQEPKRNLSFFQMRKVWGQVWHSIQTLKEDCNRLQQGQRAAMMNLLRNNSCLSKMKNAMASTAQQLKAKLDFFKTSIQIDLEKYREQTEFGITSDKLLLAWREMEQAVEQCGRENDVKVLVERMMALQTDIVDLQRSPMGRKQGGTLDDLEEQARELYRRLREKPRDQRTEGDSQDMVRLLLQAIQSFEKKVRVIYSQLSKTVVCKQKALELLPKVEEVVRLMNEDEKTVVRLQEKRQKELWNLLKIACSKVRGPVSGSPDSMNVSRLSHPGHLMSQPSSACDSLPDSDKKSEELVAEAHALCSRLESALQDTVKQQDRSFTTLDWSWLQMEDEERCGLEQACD
Test: Rat IKK-2 enzyme assay
Format: biochemical
Settings: read-out: IC50 (μM) rIKK-2
Protocol: Kinase activity was measured using a biotinylated […] peptide (Gly-Leu-Lys-Lys-Glu-Arg-Leu-Leu-Asp-Asp-Arg-His-Asp-Ser32-Gly-Leu-Asp-Ser36-Met-Lys-Asp-Glu-Glu) (American Peptide Co.). 20 μL of the standard reaction mixture contained 5 μM biotinylated IκBα peptide, 0.1 μCi/reaction [γ-^33P] ATP (Amersham) (about 1×10^5 cpm), 1 μM ATP (Sigma), 1 mM DTT (Sigma), 2 mM MgCl2 (Sigma), 2 mM MnCl2 (Sigma), 10 mM NaF (Sigma), 25 mM Hepes (Sigma) buffer, pH. 7.6 and 20 μL enzyme solution (50 nM/rxn or 200 ng/rxn) and 10 μL inhibitor in a final volume of 50 μL. After incubation at 25° C. for 60 min, 150 μL resin was added to each well to stop the reaction. Resin was mixed and allowed to settle for 1 h and 50 μL of supernatant was removed to a Micolite 2 flat bottom plate (Dynex). 150 μL of scintillation fluid (Microscint 40) (Packard) was added to each well. Incorporation of [γ-^33P] ATP was measured using a Top-Count NXT (Packard).

IC50	SMILES
10.8 µM	CCOc1cc(-n2cc(NC(N)=O)c(C(N)=O)n2)ccc1-c1ccc(OCC(N)=O)cc1 [Example 275, 4-[(aminocarbonyl)amino]-1-[4′-(2-amino-2-oxoethoxy)-2-ethoxy-1,1′-biphenyl-4-yl]-1H-pyrazole-3-carboxamide]
0.237 µM	NC(=O)Nc1cn(-c2ccc([S+]([O-])c3ccncc3)cc2)nc1C(N)=O (centres unmarked) [Example 294, 1-(3-carbamoyl-1-(4-(pyridin-4-ylsulfinyl)phenyl)-1H-pyrazol-4-yl)urea]
